Converted amounts (≈) assume the structure as drawn.
Key:
A. baumannii CDC-0036 = experiment: microbe, parasite or virus in culture; type: cell-based; details: Acinetobacter baumannii, CDC0036, read-out: MIC, A. baumannii CDC-0036
N. gonorrhoeae FA1090 = experiment: Liquid broth MIC in Fastidious broth; details: Neisseria gonorrhoeae, FA1090, read-out: Minimum Inhibitory Concentration (MIC), N. gonorrhoeae FA 1090
[1] = system: P. aeruginosa (ΔmexAB-oprM); experiment: Broth microdilution MIC in iron-depleted CAMHB (IDM); type: cell-based; details: Pseudomonas aeruginosa; iron-depleted CAMHB (IDM); […]; read-out: Minimum inhibitory concentration, P. aeruginosa ΔmexAB-oprM
P. aeruginosa ATCC 35151 = experiment: microbe, parasite or virus in culture; type: cell-based; details: Pseudomonas aeruginosa, ATCC35151, read-out: Minimum inhibitory concentration, P. aeruginosa ATCC 35151
A. baumannii ATCC 19606 = experiment: microbe, parasite or virus in culture; type: cell-based; details: Acinetobacter baumannii, ATCC19606, read-out: MIC, A. baumannii ATCC 19606
N. gonorrhoeae WHO K = experiment: Liquid broth MIC in Fastidious broth; details: Neisseria gonorrhoeae, read-out: Minimum Inhibitory Concentration (MIC), N. gonorrhoeae WHO K
N. gonorrhoeae WHO Q = experiment: Liquid broth MIC in Fastidious broth; details: Neisseria gonorrhoeae, read-out: Minimum Inhibitory Concentration (MIC), N. gonorrhoeae WHO Q
N. gonorrhoeae WHO Z = experiment: Liquid broth MIC in Fastidious broth; details: Neisseria gonorrhoeae, read-out: Minimum Inhibitory Concentration (MIC), N. gonorrhoeae WHO Z
N. gonorrhoeae MS11 = experiment: Liquid broth MIC in Fastidious broth; details: Neisseria gonorrhoeae, MS11, read-out: Minimum Inhibitory Concentration (MIC), N. gonorrhoeae MS11
A. baumannii CDC-0045 = experiment: microbe, parasite or virus in culture; type: cell-based; details: Acinetobacter baumannii, CDC0045, read-out: MIC, A. baumannii CDC-0045
N. gonorrhoeae WHO M = experiment: Liquid broth MIC in Fastidious broth; details: Neisseria gonorrhoeae, read-out: Minimum Inhibitory Concentration (MIC), N. gonorrhoeae WHO M
N. gonorrhoeae WHO L = experiment: Liquid broth MIC in Fastidious broth; details: Neisseria gonorrhoeae, read-out: Minimum Inhibitory Concentration (MIC), N. gonorrhoeae WHO L
A. baumannii 1258916 = experiment: microbe, parasite or virus in culture; type: cell-based, Acinetobacter baumannii; details: Acinetobacter baumannii, 1258916, read-out: MIC, A. baumannii 1258916

SMILES | MIC (A. baumannii CDC-0036) | MIC (N. gonorrhoeae FA1090) | MIC [1] | MIC (P. aeruginosa ATCC 35151) | MIC (A. baumannii ATCC 19606) | MIC (N. gonorrhoeae WHO K) | MIC (N. gonorrhoeae WHO Q) | MIC (N. gonorrhoeae WHO Z) | MIC (N. gonorrhoeae MS11) | MIC (A. baumannii CDC-0045) | MIC (N. gonorrhoeae WHO M) | MIC (N. gonorrhoeae WHO L) | MIC (A. baumannii 1258916)
O=C(NCCN1CCN(C(=O)N[C@@H](C(=O)N[C@H]2Cc3ccc(F)c(C(=O)O)c3OB2O)c2cc(F)c(O)c(O)c2Cl)C(=O)C1=O)Nc1ccncc1 [Example 221, (R)-3-((R)-2-(2-chloro-5-fluoro-3,4-dihydroxyphenyl)-2-(2,3-dioxo-4-(2-(3-(pyridin-4-yl)ureido)ethyl)piperazine-1-carboxamido)acetamido)-7-fluoro-2-hydroxy-3,4-dihydro-2H-benzo[e][1,2]oxaborinine-8-carboxylic acid] | 2 to 4 µg/mL (≈ 2.68 to 5.36 µM) | 1 to 2 µg/mL (≈ 1.34 to 2.68 µM) | < 1 µg/mL | < 1 µg/mL | < 1 µg/mL | > 64 µg/mL | > 64 µg/mL | > 64 µg/mL | 16 to 32 µg/mL (≈ 21.5 to 42.9 µM) | < 1 µg/mL | 4 to 8 µg/mL (≈ 5.36 to 10.7 µM) | > 64 µg/mL | 2 to 4 µg/mL (≈ 2.68 to 5.36 µM)
O=C(NCCN1CCN(C(=O)N[C@@H](C(=O)N[C@H]2Cc3ccc(F)c(C(=O)O)c3OB2O)c2cc(F)c(O)c(O)c2Cl)C(=O)C1=O)Nc1cccnc1 [Example 222, (R)-3-((R)-2-(2-chloro-5-fluoro-3,4-dihydroxyphenyl)-2-(2,3-dioxo-4-(2-(3-(pyridin-3-yl)ureido)ethyl)piperazine-1-carboxamido)acetamido)-7-fluoro-2-hydroxy-3,4-dihydro-2H-benzo[e][1,2]oxaborinine-8-carboxylic acid] | 2 to 4 µg/mL (≈ 2.68 to 5.36 µM) | 1 to 2 µg/mL (≈ 1.34 to 2.68 µM) | < 1 µg/mL | < 1 µg/mL | < 1 µg/mL | > 64 µg/mL | > 64 µg/mL | > 64 µg/mL | 16 to 32 µg/mL (≈ 21.5 to 42.9 µM) | < 1 µg/mL | 4 to 8 µg/mL (≈ 5.36 to 10.7 µM) | > 64 µg/mL | 2 to 4 µg/mL (≈ 2.68 to 5.36 µM)
CN(CCN1CCN(C(=O)NC(C(=O)N[C@H]2Cc3ccc(F)c(C(=O)O)c3OB2O)c2cc(F)c(O)c(O)c2Cl)C(=O)C1=O)S(=O)(=O)c1ccc(C(N)=O)cc1 (stereo partly drawn) [Example 223, (3R)-3-(2-(4-(2-((4-carbamoyl-N-methylphenyl)sulfonamido)ethyl)-2,3-dioxopiperazine-1-carboxamido)-2-(2-chloro-5-fluoro-3,4-dihydroxyphenyl)acetamido)-7-fluoro-2-hydroxy-3,4-dihydro-2H-benzo[e][1,2]oxaborinine-8-carboxylic acid] | 8 to 16 µg/mL (≈ 9.72 to 19.4 µM) | 4 to 8 µg/mL (≈ 4.86 to 9.72 µM) | < 1 µg/mL | < 1 µg/mL | < 1 µg/mL | > 64 µg/mL | > 64 µg/mL | 16 to 32 µg/mL (≈ 19.4 to 38.9 µM) | 16 to 32 µg/mL (≈ 19.4 to 38.9 µM) | < 1 µg/mL | 16 to 32 µg/mL (≈ 19.4 to 38.9 µM) | > 64 µg/mL | 2 to 4 µg/mL (≈ 2.43 to 4.86 µM)
CN(CCN1CCN(C(=O)NC(C(=O)N[C@H]2Cc3ccc(F)c(C(=O)O)c3OB2O)c2cc(F)c(O)c(O)c2Cl)C(=O)C1=O)S(=O)(=O)c1cccc(C(N)=O)c1 (stereo partly drawn) [Example 224, (3R)-3-(2-(4-(2-((3-carbamoyl-N-methylphenyl)sulfonamido)ethyl)-2,3-dioxopiperazine-1-carboxamido)-2-(2-chloro-5-fluoro-3,4-dihydroxyphenyl)acetamido)-7-fluoro-2-hydroxy-3,4-dihydro-2H-benzo[e][1,2]oxaborinine-8-carboxylic acid] | 8 to 16 µg/mL (≈ 9.72 to 19.4 µM) | 4 to 8 µg/mL (≈ 4.86 to 9.72 µM) | < 1 µg/mL | < 1 µg/mL | < 1 µg/mL | > 64 µg/mL | > 64 µg/mL | > 64 µg/mL | > 64 µg/mL | < 1 µg/mL | 16 to 32 µg/mL (≈ 19.4 to 38.9 µM) | > 64 µg/mL | 2 to 4 µg/mL (≈ 2.43 to 4.86 µM)
CN(CCN1CCN(C(=O)N[C@@H](C(=O)N[C@H]2Cc3ccc(F)c(C(=O)O)c3OB2O)c2cc(F)c(O)c(O)c2Cl)C(=O)C1=O)Cc1cccc(C(N)=O)c1 [Example 225, (R)-3-((R)-2-(4-(2-((3-carbamoylbenzyl)(methyl)amino)ethyl)-2,3-dioxopiperazine-1-carboxamido)-2-(2-chloro-5-fluoro-3,4-dihydroxyphenyl)acetamido)-7-fluoro-2-hydroxy-3,4-dihydro-2H-benzo[e][1,2]oxaborinine-8-carboxylic acid] | 2 to 4 µg/mL (≈ 2.59 to 5.18 µM) | 1 to 2 µg/mL (≈ 1.29 to 2.59 µM) | < 1 µg/mL | < 1 µg/mL | < 1 µg/mL | > 64 µg/mL | > 64 µg/mL | 16 to 32 µg/mL (≈ 20.7 to 41.4 µM) | 16 to 32 µg/mL (≈ 20.7 to 41.4 µM) | < 1 µg/mL | 16 to 32 µg/mL (≈ 20.7 to 41.4 µM) | > 64 µg/mL | < 1 µg/mL

— US20240270762A1, “PENICILLIN-BINDING PROTEIN INHIBITORS” (priority 2021, published 2024)
